Results taken from paper PMC3157396, “Molecular Basis for the Recognition of Adenomatous Polyposis Coli by the Discs Large 1 Protein” (PLoS ONE, 2011).
“Also recorded” adds a separate entry of the source. Each block holds one substance with its values, some of them ahead of it.

How the values were obtained:
[1] = system: PDZ1 and PDZ2 domains of PSD-95; settings: cited from earlier work
Text: The 3D structures of the three PDZ domains of DLG1 have been determined in the free forms [13]–[15]. They share very similar structures, and the ligand binding pockets are also conserved. […] The residues in the β2/β3 loop ...

[2] = system: P245Q mutation in PDZ1 of DLG1; settings: cited from earlier work
Text: This residue difference might account for the higher affinity between PDZ2 and APC.

[3] = target: T1, PDZ3 domain of DLG1 (Homo sapiens, UniProt Q12959); assay: ITC, PDZ3 titrated into GST-APC-C11; assay type: binding; settings: 25°C, 50 mM HEPES pH 7.5, 100 mM NaCl
T1 construct: PDZ3 (462–552); His tag (N); made in house; host or cells: E. coli BL21 (DE3)
Text: (§1) The cDNAs encoding PDZ1 (residues 220–310), PDZ2 (residues 315–410), PDZ3 (462–552), and PDZ1-PDZ2 (residues 220–410) domains of human DLG1 were cloned into pET28a (Novagen)-derived vectors and over-expressed as N-terminal His-tagged proteins. The C-terminal 11 residues of human APC (residues 2833–2843, APC-C11, with sequence […]), the C-terminal 4 residues of human APC (residues 2840–2843, APC-C4, sequence VTSV), and residues 2833–2842 of APC (APC-C10, sequence […]) were cloned into the pGEX4T1 (GE Healthcare) vector to be expressed as N-terminal GST-tagged recombinant proteins.
All proteins except PDZ1-PDZ2 were over-expressed in E. coli strain BL21 (DE3), and PDZ1-PDZ2 was over-expressed in E. coli strain BL21 (RIL). Cells were cultured at 37°C in LB medium and incubated for 20 hours at 18°C with 0.5 mM isopropyl β-D-1-thiogalactopyranoside (IPTG) on reaching OD600 = 0.6. Cells were harvested by centrifugation and resuspended in the binding buffer (Ni^2+-NTA column binding buffer: 25 mM Tris-HCl, pH 8.0, 300 mM NaCl, and 20 mM imidazole; GST column binding buffer: 25 mM Tris-HCl, pH 8.0, 150 mM NaCl, and 2 mM DTT). The cells were lysed by sonication, followed by centrifugation. Supernatants of the cells lysates were purified by Ni^2+-NTA affinity chromatography (Qiagen) or GST affinity chromatography (GE Healthcare). […]

[4] = target: T2, PDZ2 domain of DLG1 (residues 315–410) (Homo sapiens, UniProt Q12959); assay: GST pull-down assay, PDZ2; assay type: binding; settings: for binding in GST pull-down (in words): PDZ2 (WT), GST-APC peptide immobilized, 4°C, 25 mM Tris-HCl pH 8.0, 150 mM NaCl, 2 mM DTT, SDS-PAGE, Coomassie Blue
T2 construct: PDZ2 (residues 315–410); His tag (N); made in house; host or cells: E. coli BL21 (DE3)
Text: as §1
(§2) All proteins except PDZ1-PDZ2 were over-expressed in E. coli strain BL21 (DE3), and PDZ1-PDZ2 was over-expressed in E. coli strain BL21 (RIL). Cells were cultured at 37°C in LB medium and incubated for 20 hours at 18°C with 0.5 mM isopropyl β-D-1-thiogalactopyranoside (IPTG) on reaching OD600 = 0.6. Cells were harvested by centrifugation and resuspended in the binding buffer (Ni^2+-NTA column binding buffer: 25 mM Tris-HCl, pH 8.0, 300 mM NaCl, and 20 mM imidazole; GST column binding buffer: 25 mM Tris-HCl, pH 8.0, 150 mM NaCl, and 2 mM DTT). The cells were lysed by sonication, followed by centrifugation. Supernatants of the cells lysates were purified by Ni^2+-NTA affinity chromatography (Qiagen) or GST affinity chromatography (GE Healthcare). PDZ1, PDZ2, PDZ3, and PDZ1-PDZ2 proteins were then purified by Superdex 200 gel filtration chromatography equilibrated with a buffer containing 20 mM Tris-HCl, pH 8.0, 100 mM NaCl, and 2 mM DTT.
(§3) GST pull-down assays between wild-type (WT) or mutant APC peptides and WT or mutant PDZ domain proteins were performed according to standard procedures. […] The bound proteins were eluted with the GST column elution buffer (50 mM Tris-HCl, pH 8.0, 150 mM NaCl, and 7 mM glutathione), and then analyzed by SDS-PAGE and Coomassie Blue staining.

[5] = target: T3, PDZ1 domain of DLG1 (residues 220–310) (Homo sapiens, UniProt Q12959); assay: ITC, PDZ1 titrated into GST-tagged APC peptides; assay type: binding; settings: 25°C, 50 mM HEPES pH 7.5, 100 mM NaCl
T3 construct: The cDNAs encoding PDZ1 (residues 220–310); His tag (N); made in house; host or cells: E. coli BL21 (DE3)
Text: as §1, §2
(§4) Isothermal titration calorimetry (ITC) experiments were performed using an ITC200 system (GE Healthcare) at 25°C. The buffer contained 50 mM HEPES, pH 7.5, and 100 mM NaCl. Proteins were centrifuged and degassed before the experiment. Typically, a WT or mutant DLG1 PDZ domain protein (400 µM) was injected 20 times in 2 µl aliquots into a 300 µl sample cell containing GST-tagged APC-C11 or APC-C4 protein (40 µM). Data were fit with a nonlinear least-square routine using a single site binding model with Origin for ITC version 7.0 (MicroCal), varying the stoichiometry (n), the enthalpy of the reaction (ΔH), and the association constant (K a).

[6] = target: T4, PDZ2 Q340P (DLG1) (Homo sapiens, UniProt Q12959, Q340P); assay: GST pull-down assay, PDZ2 Q340P; assay type: binding; settings: PDZ2 Q340P vs WT PDZ2; GST-APC-C11 immobilized, 4°C; 25 mM Tris-HCl pH 8.0, 150 mM NaCl, 2 mM DTT
T4 construct: PDZ2 (residues 315–410); His tag (N); made in house; host or cells: E. coli BL21 (DE3)
T4 sequence (Q12959 315-410 Q340P): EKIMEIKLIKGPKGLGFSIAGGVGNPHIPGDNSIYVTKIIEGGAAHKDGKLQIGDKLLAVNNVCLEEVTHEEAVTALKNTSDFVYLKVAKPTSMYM
Text: as §1, §3

[7] = target: T5, PDZ2 Δ339–346 (DLG1) (Homo sapiens, UniProt Q12959, DEL339-346); assay: ITC, PDZ2 Δ339–346 titrated into GST-APC-C11; assay type: binding; settings: 25°C, 50 mM HEPES pH 7.5, 100 mM NaCl
T5 construct: PDZ2 (residues 315–410); His tag (N); made in house; host or cells: E. coli BL21 (DE3)
T5 sequence (Q12959 with tags, fused parts or gaps DEL339-346): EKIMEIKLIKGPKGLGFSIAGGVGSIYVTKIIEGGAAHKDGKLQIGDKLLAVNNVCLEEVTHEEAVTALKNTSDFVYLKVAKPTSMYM
Text: (§5) The 3D structures of the three PDZ domains of DLG1 have been determined in the free forms [13]–[15]. They share very similar structures, and the ligand binding pockets are also conserved. […] The residues in the β2/β3 loops of PDZ domains in other proteins have also been implicated in determining their target ligand binding affinities, [18]. In order to know whether the β2/β3 loop also plays an important role in the interaction between APC and DLG1, we created a similar mutant of PDZ2 deleting residues 339–346.
as §1
Isothermal titration calorimetry (ITC) experiments were performed using an ITC200 system (GE Healthcare) at 25°C. The buffer contained 50 mM HEPES, pH 7.5, and 100 mM NaCl. Proteins were centrifuged and degassed before the experiment. […]

[8] = target: T3, PDZ1 domain of DLG1 (residues 220–310); assay: GST pull-down assay, PDZ1; assay type: binding; settings: GST-APC peptide immobilized, 4°C, 25 mM Tris-HCl pH 8.0, 150 mM NaCl, 2 mM DTT, SDS-PAGE, Coomassie Blue
Text: as §1, §2, §3

[9] = target: T2, PDZ2 domain of DLG1 (residues 315–410); assay: ITC, PDZ2 titrated into GST-tagged APC peptides; assay type: binding; settings: 25°C, 50 mM HEPES pH 7.5, 100 mM NaCl
Text: as §1, §2, §4

[10] = target: T5, PDZ2 Δ339–346 (DLG1); assay: GST pull-down assay, PDZ2 Δ339–346; assay type: binding; settings: PDZ2 Δ339–346 vs WT PDZ2; GST-APC-C11 immobilized, 4°C; 25 mM Tris-HCl pH 8.0, 150 mM NaCl, 2 mM DTT
Text: as §5, §1
GST pull-down assays between wild-type (WT) or mutant APC peptides and WT or mutant PDZ domain proteins were performed according to standard procedures. […]

[11] = target: T4, PDZ2 Q340P (DLG1); assay: ITC, PDZ2 Q340P titrated into GST-APC-C11; assay type: binding; settings: 25°C, 50 mM HEPES pH 7.5, 100 mM NaCl
Text: as §1, §4

[12] = system: PDZ1-PDZ2 of DLG1 (residues 220–410); assay: GST pull-down assay, PDZ1-PDZ2; assay type: binding, human; settings: GST-APC peptide immobilized, 4°C, 25 mM Tris-HCl pH 8.0, 150 mM NaCl, 2 mM DTT, SDS-PAGE, Coomassie Blue
Text: as §1
All proteins except PDZ1-PDZ2 were over-expressed in E. coli strain BL21 (DE3), and PDZ1-PDZ2 was over-expressed in E. coli strain BL21 (RIL). Cells were cultured at 37°C in LB medium and incubated for 20 hours at 18°C with 0.5 mM isopropyl β-D-1-thiogalactopyranoside (IPTG) on reaching OD600 = 0.6. […]
as §3

T2 sequence (Q12959 315-410): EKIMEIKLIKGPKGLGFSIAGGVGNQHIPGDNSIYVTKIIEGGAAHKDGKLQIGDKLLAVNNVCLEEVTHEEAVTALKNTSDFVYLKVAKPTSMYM
T3 sequence (Q12959 220-310): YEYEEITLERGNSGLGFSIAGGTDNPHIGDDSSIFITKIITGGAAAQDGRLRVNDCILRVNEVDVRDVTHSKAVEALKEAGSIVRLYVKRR
T1 sequence (Q12959 462-552): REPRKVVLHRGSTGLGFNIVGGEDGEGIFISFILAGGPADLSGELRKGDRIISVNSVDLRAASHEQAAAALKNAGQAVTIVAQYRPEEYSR

Substance: NR2B: NR2B subunit of NMDA receptors
change of binding affinity on deletion of six residues from the β2/β3 loops (in words) [1]: decreases the binding affinity
fold increase in binding affinity for NR2B [2]: 2 fold

interaction / heat of reaction by ITC (in words) [3]: no detectable interaction was observed
binding in GST pull-down (in words) ([4]; listed as GST-APC-C11): bound most strongly
DLG/APC ratio ([5]; 400 µM PDZ1 into 40 µM GST-tagged APC peptide, single site binding model): 0.918±0.127
TΔS ([5]; PDZ1 into GST-tagged APC peptide): 2.44 kcal/mol
ΔH ([5]; PDZ1 into GST-tagged APC peptide, negative = exothermic): -4.02 ± 0.82 kcal/mol
interaction / heat of reaction by ITC (in words) [7]: no detectable heat of reaction
interaction / heat of reaction by ITC (in words) ([7]; listed as GST-APC-C11): no detectable interaction was observed
binding in GST pull-down (in words) [8]: somewhat weaker, but detectable binding
DLG/APC ratio ([9]; 400 µM PDZ2 into 40 µM GST-tagged APC peptide, single site binding model): 0.916±0.018
TΔS ([9]; PDZ2 into GST-tagged APC peptide): 1.07 kcal/mol
ΔH ([9]; PDZ2 into GST-tagged APC peptide, negative = exothermic): -7.09 ± 0.19 kcal/mol
DLG/APC ratio ([11]; 400 µM PDZ2 Q340P into 40 µM GST-APC-C11, single site binding model): 1.04±0.03
TΔS ([11]; PDZ2 Q340P into GST-APC-C11): 0.0793 kcal/mol
ΔH ([11]; PDZ2 Q340P into GST-APC-C11, negative = exothermic): -6.76 ± 0.27 kcal/mol
binding in GST pull-down (in words) [12]: bound most strongly
Substance: RHSGSYLVTSV [APC-C11]
binding in GST pull-down (in words) [4]: stronger than that between PDZ1 and APC-C11
binding in GST pull-down in crystallization-like buffer (in words) ([4]; PDZ2, buffer similar to the condition in which PDZ2/APC-C11 crystallized, data not shown): weaker than that between PDZ1 and APC-C11
binding in GST pull-down (in words) [6]: greatly diminished the association; also recorded: substantially weaker interaction
binding in GST pull-down (in words) [10]: significantly decreases the interaction; also recorded: dramatically decreased the interaction

Substance: VTSV [APC-C4]
binding in GST pull-down (in words) [4]: significantly weaker compared to GST-APC-C11
interaction / heat of reaction by ITC (in words) ([5]; PDZ1, listed as GST-APC-C4): no detectable heat of reaction; also recorded: no detectable interaction was observed
binding in GST pull-down (in words) [8]: significantly weaker compared to GST-APC-C11
interaction / heat of reaction by ITC (in words) ([9]; PDZ2, listed as GST-APC-C4): no detectable heat of reaction; also recorded: no detectable interaction was observed
binding in GST pull-down (in words) [12]: significantly weaker compared to GST-APC-C11

binding in GST pull-down (in words) [4]: no interaction could be observed
binding in GST pull-down (in words) [8]: no interaction could be observed
Substance: RHSGSYLVTS [APC-C10]
